Measurements: ChEMBL document CHEMBL1157539, “Thousands of chemical starting points for antimalarial lead identification” (Nature, 2010)

test system: Plasmodium falciparum; experiment: GSK_TCMDC: Inhibition of Plasmodium falciparum 3D7 in whole erythrocytes, using parasite LDH activity as an index of growth.; assay type: functional, organism-based; conditions: Plasmodium falciparum, 3D7

| Compound | XC50 [nM] |
| --- | --- |
| CCN1CCC(N(Cc2ccc(-c3ccc(C(F)(F)F)cc3)cc2)C(=O)Cn2nc(C)c(=O)cc2SCc2ccc(F)cc2)CC1 | 1010 |
| CN1CCC(N(Cc2ccc(-c3ccc(Cl)cc3)cc2)C(=O)Cn2c(CCc3cccc(F)c3F)cc(=O)c3ccccc32)CC1 | 865 |
| Cc1ccc2c(=NN=Cc3ccc(Cl)cc3)cc(C)[nH]c2c1 | 945 |
| O=c1cc(NCCCNCc2cn(S(=O)(=O)c3ccccc3)c3ccccc23)[nH]c2ccccc12 | 879 |
| N#Cc1cncc(-c2nc3c(N4CCC(Cc5ccccc5)CC4)cccc3n2CCNCc2ccccc2)c1 | 573 |
| COc1ccc(CNCCCCCCNCc2ccc(OC)c3ccccc23)c2ccccc12 | 581 |
| COc1ccc(NC(=O)[C@H](CC(C)C)Nc2cc(C)nc(Nc3ccccc3)n2)cc1 | 866 |
| CCCCCCCc1cc(=O)c2ccccc2[nH]1 | 317 |
| COc1ccc(-c2csc(NC(=O)CCC(=O)O)n2)cc1OC | 842 |
| CN(c1ccc(F)cc1)S(=O)(=O)c1ccc(Cl)c(C(=O)Nc2cccc(C#N)c2)c1 | 699 |
| CC(C)C[C@H](NC(=O)c1ccc(OCCN2CCOCC2)cc1)C(=O)N[C@H](/C=N/NC(=O)c1ccccc1)CCc1ccccc1 | 62.1 |
| COc1ccc(NC(=O)/C=C/c2ccc(Cl)c(Cl)c2)cc1N1CCN(C)CC1 | 980 |
| Cc1cc(N[C@@H](CC(C)C)C(=O)NCCOc2ccccc2)nc(Nc2ccccc2)n1 | 1110 |
| COC(=O)c1ccc(CC(C)NCC(O)c2ccc(C(O)CNC(C)Cc3ccc(C(=O)OC)cc3)cc2)cc1 (stereo not given) | 1030 |
| O=C(Nc1ccc(OC2CCN(Cc3ccc(F)cc3)C2)cc1)c1cccs1 (stereo not given) | 642 |
| Cc1cc(C)cc(Oc2c(C(F)(F)F)oc3c(CN4CC(C)OC(C)C4)c(O)ccc3c2=O)c1 (stereo not given) | 939 |
| CC(C)Nc1nc(NC2CCCCC2)nc(N2CCCCCCC2)n1 | 1090 |
| Cc1cc(NCCC(=O)NCc2cccc(F)c2)nc(Nc2ccccc2)n1 | 1050 |
| N#Cc1ccc(-c2nc3c(N4CCCC4)cccc3n2CCNCc2ccccc2)cc1 | 593 |
| Cc1noc(C)c1-c1cccc(CNCc2cccc(-c3ccc(-c4nc5cccc(C)c5[nH]4)cc3)c2)c1 | 191 |
| Cc1cc(N[C@@H](Cc2ccccc2)C(=O)NCCc2ccccc2)nc(NCc2ccccc2C)n1 | 879 |
| Cc1nc(C)c(CC(=O)Nc2ccc(-c3cccc(-c4nc5cc(C(F)(F)F)ccc5[nH]4)c3)cc2)s1 | 925 |
| COc1cc(Cc2cnc(N)nc2N)ccc1OCC(=O)Nc1ccc(C)cc1 | 478 |
| COc1cc(Nc2ccnc3ccc(C(F)(F)F)cc23)cc(OC)c1OC | 698 |

| Compound | XC50 [nM] |
| --- | --- |
| Cc1cccc2nc(-c3ccc(-c4ccc(C(=O)NCCc5cn(C)cn5)cc4)s3)[nH]c12 | 960 |
| COc1ccc(Nc2nc(NC3CCN(C)CC3)cc(-c3ccc(OC)cc3)n2)cc1 | 545 |
| CCOC(=O)CNC(=O)c1cc(=O)c2ccccc2o1 | 210 |
| CC1CCN(CC[C@H]2CCCN2S(=O)(=O)c2cccc(NC(=O)c3ccc(-c4ccccc4)cc3)c2)CC1 | 1260 |
| COc1ccc2nccc([C@@H](O)CN3CCC(NC(=O)CCC(=O)c4cc(C(C)(C)C)ccc4OC)CC3)c2c1 | 846 |
| Cc1ccccc1C1CCN(C2CCC(NC(=O)c3ccc(-c4cc(C(F)(F)F)nn4C)s3)CC2)CC1 (stereo not given) | 846 |
| Cc1noc(-c2cccs2)c1C(=O)NCCc1cccc(Cl)c1 | 463 |
| CN1CCN(c2ccc(Nc3ncc([N+](=O)[O-])c(Nc4ccccc4O)n3)cc2)CC1 | 723 |
| O=C(NCCN1CCCCC1)c1ccc(Nc2nccc(Nc3ccc(Oc4ccccc4)cc3)n2)cc1 | 553 |
| COc1ccc(CNCCCCCCCNCc2ccc(Cl)c(Cl)c2)cc1Cl | 1220 |
| Cc1cccc2nc(-c3ccc(-c4ccc(CN5CCN(CCN6CCOCC6)CC5)cc4)s3)[nH]c12 | 245 |
| CN1CCC(C(=O)N(Cc2ccc(-c3ccc(CNCCc4ccc(S(C)(=O)=O)cc4)cn3)cc2)Cc2cccc(F)c2)CC1 | 706 |
| COc1ccc2c(ccc3c2ncc2c(=O)n(-c4ccccc4)[nH]c23)c1 | 520 |
| CCn1c(-c2nonc2N)nc2c(-c3ccc(CO)o3)ncc(OCCCN)c21 | 1360 |
| CC[C@H]1CN2CC[C@@H]1C[C@H]2[C@H](O)c1cc(N2CCC(c3ccccc3)CC2)nc2ccc(OC)cc12 | 346 |
| CC[C@H]1CN(CCCC(=O)c2ccccc2)CC[C@H]1CCCc1ccnc2ccc(OC(=O)c3ccccc3)cc12 | 832 |
| NC1(C(=O)O)Cc2ccc(Cl)cc2C1 (stereo not given) | 734 |
| CCCc1cc(Cc2cnc(N)nc2N)cc(CC)c1O | 1320 |
| CCC1CN(CCCn2c3ccccc3c3ccccc32)C(CC)CN1 (stereo not given) | 1080 |
| COc1ccc(C2CC(c3cccs3)=NN2C(=O)c2ccccc2)cc1OC (stereo not given) | 661 |
| Cc1nnc(Sc2ncnc3scc(-c4ccc(F)cc4)c23)s1 | 811 |
| Cc1cc(Cl)ccc1NC(=O)NCCCCCN1CCC(c2c[nH]c3ccccc23)CC1 | 1010 |
| Cc1cccc2nc(-c3cccc(-c4ccc(C(=O)NCc5ccccc5S(C)(=O)=O)cc4)c3)[nH]c12 | 750 |
| CCc1cn2c3c(cc(C(=O)N[C@@H](Cc4cccc(F)c4)[C@H](O)CNC4CCOCC4)cc13)N(C)S(=O)(=O)CC2 | 68.1 |

| Compound | XC50 [nM] |
| --- | --- |
| CC1CCN(Cc2cccc(C(=O)NCc3ccc(F)c(-c4cccc(CN5CCN[C@@H](C)C5)c4)c3)c2)CC1 | 1460 |
| O=C(Nc1nc2cc(S(=O)(=O)NCCc3cccc(F)c3)ccc2n1CCCn1ccnc1)c1ccc(Cl)cc1 | 1270 |
| c1cc(-c2ccc(CN3CCCC3)cc2)cc(-c2nc3ccccc3[nH]2)c1 | 690 |
| N#Cc1ccc(N2CCN(Cc3ccc(-c4ccc(-c5nc6cc(C(F)(F)F)ccc6[nH]5)cc4)cc3)CC2)nc1 | 963 |
| CCn1c(CN2CCN(Cc3ccccc3)CC2)nc2cc(NC(=O)c3cccs3)ccc21 | 402 |
| COc1ccc2nc(SC(C)C(=O)c3c[nH]c4ccccc34)[nH]c2c1 (stereo not given) | 1280 |
| FC(F)(F)COc1ccc(CCNCCCCNCCc2ccc(OCC(F)(F)F)c3ccccc23)c2ccccc12 | 648 |
| OCCN1CCN(Cc2ccc(-c3cccc(-c4nc5ccccc5[nH]4)c3)cc2)CC1 | 749 |
| CN(C)CCN(C)Cc1ccc(-c2ccc3c(Nc4ccc(Oc5ccccc5)cc4)ccnc3c2)o1 | 179 |
| N#Cc1cccc(-c2nc(NCc3cccc(C(F)(F)F)c3)nn2-c2cccc(C(F)(F)F)c2)c1 | 592 |
| O=C(CCCC(=O)Nc1ccc(C2=NCCN2)cc1)Nc1ccc(C2=NCCN2)cc1 | 106 |
| Cc1cc2c(cc1Cl)N(C(=O)Nc1cc(F)cc(-c3cncnc3)c1)CC2 | 377 |
| O=C(c1ccc2ccccc2n1)N1CCCc2cc(Br)ccc21 | 858 |
| OCCN1CCN(c2ccc(Nc3ccnc4cc5ccccc5cc34)cc2)CC1 | 41 |
| Nc1ccnc2ccc(OCCCCCCc3ccccc3)cc12 | 524 |
| O=C(Nc1ccc(OC2CCN(Cc3ccc(F)cc3)C2)cc1)c1ccco1 (stereo not given) | 1040 |
| N#Cc1ccc(C(=O)Nc2ccc(-c3cccc(CN4CCCC4)c3)cc2)cc1 | 1000 |
| CC1(C)CCCN(C(=O)c2cccc(-n3nc(-c4ccc(Cl)cc4)cc3N)c2)C1 | 712 |
| O=C(/C=C/c1ccc(Cl)c(Cl)c1)NCCCCCCN1CCN(C(=O)Nc2ccc(OC(F)F)cc2)CC1 | 679 |
| Cc1c(S(=O)(=O)Nc2ccc3nccc(N4CCN[C@H](C)C4)c3c2)sc2ccc(Cl)cc12 | 842 |
| CC(C)NC(=O)c1cccc(-c2ccc(OCCN3CCCC3c3cc4ccccc4[nH]3)cc2)c1 (stereo not given) | 958 |
| CN1CCN(c2ccnc3ccc(NC(=O)Nc4cccc5c(-c6ccncc6)cccc45)cc23)CC1 | 877 |
